This note sets out measurements from US20070003987A1, “Screening method for substance binding to merozoite surface protein-1/42” (priority 2003, published 2007).

One experiment deals with T1, P. falciparum MSP142 (Plasmodium falciparum, UniProt Q8I0U8).
T1 construct: was used to express a His6-tagged MSP142 protein; His6; made in house; host or cells: E. coli BL21 (DE3)
Briefly: binding of suramin to MSP1 by fluorimetry. As for the experimental part: The pETATPf MSP142 plasmid (described by Angov et al, 2003 Mol. Biochem. Parasitol. 128, 195-204) was used to express a His6-tagged MSP142 protein (P. falciparum 3D7 clone, Accession Number Z35327). The DNA was used to transform E. coli BL21 (DE3) cells and then clones were selected on plates of agar containing ampicillin. Cells expressing the modified MSP142 were grown to mid log phase (OD6000.5-0.8) at 37° C., then after the incubation temperature had been reduced to 25° C., the protein expression was induced by addition of 0.1 mM IPTG. After 2 h of further growth the bacterial cells were harvested by centrifugation. The resulting cell paste was resuspended in lysis buffer (10 mM sodium phosphate, 50 mM NaCl, 10 mM imidazole, pH 6.2) and lysed by microfluidization. […]
The intrinsic fluorescence of suramin was used to determine its capacity to bind to the various MSP1-derived proteins. The fluorescence was measured using a Perkin Elmer LS-3B or a Spex Fluoro Max 2 fluorimeter. Suramin was excited at a wavelength of 315 or 330 nm with 2.5 nm resolution, the emission spectra were measured at wavelengths ranging from 350-450 nm. Suramin and the MSP1 proteins were diluted in 20 mM NaH2PO4, 150 mM NaCl at pH 7.2 and analysed at 10 or 20° C. […] The Kd for the suramin-MSP1 binding was determined from three independent experiments. […]

Experiment [1] has as its target T2, P. vivax MSP133 (Plasmodium vivax, UniProt Q02569, A1444G/T1362K/T1451N).
T2 sequence (Q02569 1325-1618 T1362K/A1444G/T1451N): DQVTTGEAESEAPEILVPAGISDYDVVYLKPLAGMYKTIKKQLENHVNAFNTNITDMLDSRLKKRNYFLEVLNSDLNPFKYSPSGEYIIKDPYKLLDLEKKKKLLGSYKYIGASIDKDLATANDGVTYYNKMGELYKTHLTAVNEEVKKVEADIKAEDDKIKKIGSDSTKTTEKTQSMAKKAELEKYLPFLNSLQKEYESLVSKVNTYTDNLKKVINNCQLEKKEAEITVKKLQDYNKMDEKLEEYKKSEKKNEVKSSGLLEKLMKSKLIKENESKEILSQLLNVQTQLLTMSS
Briefly: isothermal titration calorimetry. The experiment is classed as binding. As for the experimental part:
P. vivax MSP133 was expressed using the P. vivax MSP142 clone, above, as a template for PCR, followed by ligation of the product into vector pET30Xa/LIC. The sequence runs from Asp 1325 to Ser 1618 (Accession number A39401) following the N-terminal purification tag. The vector was used to transform BL21(DE3)pLysS cells. For expression, a culture of the transformed cells was induced at an OD600 of 0.6-0.8 at 37° C. with 1 mM IPTG for 3 h. The cells were harvested by centrifugation and the cell pellet lysed using the Bugbuster protein extraction reagent (Novagen). The cell lysate was cleared by centrifugation and the supernatant loaded directly onto a Ni-NTA column. The column was washed with 10 volumes of 50 mM NaH2PO4, 300 mM NaCl, 10 mM imidazole, pH 8.0, then with 6 column volumes of the same buffer containing 30 mM imidazole, and finally eluted with 3 column volumes of the buffer with 250 mM imidazole. The eluted protein was then loaded directly onto a Superdex 200 (26/600) column (Amersham) equilibrated in 20 mM Tris-HCl, 250 mM NaCl, pH 8.0 and purified by gel filtration. The fractions containing MSP-133 were pooled and dialysed extensively with PBS.
In addition to the fluorimetry, isothermal titration calorimetry (ITC) was performed using a Microcal omega VP-ITC (MicroCal Inc., Northampton, Mass.). The proteins were dialyzed extensively against the ITC buffer (phosphate buffered saline, pH 7.4). All experiments were performed at 25° C. The cell, 1.425 ml, contained 30 μM MSP142 or MSP133 and these were titrated by injection of a total of 290 μl of 600 μM suramin. The heat of dilution of suramin into buffer was determined in control experiments. The data were fitted by least-squares methods using the evaluation software, Microcal Origin version 5.0 provided by the manufacturer. Each experiment was performed twice.

Experiment [2] relates to P. vivax MSP133. Briefly: binding of suramin by fluorimetry. As to the method:
P. vivax MSP133 was expressed using the P. vivax MSP142 clone, above, as a template for PCR, followed by ligation of the product into vector pET30Xa/LIC. The sequence runs from Asp 1325 to Ser 1618 (Accession number A39401) following the N-terminal purification tag. The vector was used to transform BL21(DE3)pLysS cells. For expression, a culture of the transformed cells was induced at an OD600 of 0.6-0.8 at 37° C. with 1 mM IPTG for 3 h. The cells were harvested by centrifugation and the cell pellet lysed using the Bugbuster protein extraction reagent (Novagen). The cell lysate was cleared by centrifugation and the supernatant loaded directly onto a Ni-NTA column. […]
The intrinsic fluorescence of suramin was used to determine its capacity to bind to the various MSP1-derived proteins. The fluorescence was measured using a Perkin Elmer LS-3B or a Spex Fluoro Max 2 fluorimeter. Suramin was excited at a wavelength of 315 or 330 nm with 2.5 nm resolution, the emission spectra were measured at wavelengths ranging from 350-450 nm. Suramin and the MSP1 proteins were diluted in 20 mM NaH2PO4, 150 mM NaCl at pH 7.2 and analysed at 10 or 20° C. […] The Kd for the suramin-MSP1 binding was determined from three independent experiments.

The target in a further experiment is MSP142 (Plasmodium falciparum, UniProt Q8I0U8). Nature of the experiment: competition binding of analogues 258 and 264 against suramin. The settings on record: MSP142 0.1 mg/ml, 1 hour. As to the method:
MSP142 (0.1 mg/ml) and fixed concentrations of analogue 258 (5 μM) or 264 (10 μM) were premixed and 90 μL added to a 384-well black polypropylene plate. Suramin was added to give a final concentration in the range 0.01 to 200 μM in a total reaction volume of 100 μL. The plates were incubated at room temperature protected from light for 1 hour, and then read as before. Results are shown in FIG. 10, which is a graph of fluorescence (arbitary units) against concentration of suramin competitor for analogue 258 (white squares) and 264 (black circles).

Molecules are shown by their SMILES.

For the compound `Cc1ccc(C(=O)Nc2ccc(S(=O)(=O)O)c3cc(S(=O)(=O)O)cc(S(=O)(=O)O)c23)cc1NC(=O)c1cccc(NC(=O)Nc2cccc(C(=O)Nc3cc(C(=O)Nc4ccc(S(=O)(=O)O)c5cc(S(=O)(=O)O)cc(S(=O)(=O)O)c45)ccc3C)c2)c1` [suramin], the figures for the Kd on P. falciparum MSP142 and at P. vivax MSP133 [1] were 0.22 µM and 1.5 ± 0.5 µM, respectively. Moreover, the “change of suramin emission intensity on binding to MSP142” value on P. falciparum MSP142 (excited at 315 nm) was “pronounced increase in emission intensity”. Also, the “binding to MSP133 weaker than to MSP142” value at P. vivax MSP133 [1] (ITC) is listed as 5 fold. At P. vivax MSP133 [1] (ITC, 25° C.), this compound gave an AH value of 12 ± 1 kcal/mol. Further, the “enhancement of intrinsic suramin fluorescence on binding” value with P. vivax MSP133 [2] is on record as “large binding-induced enhancements”. Also, the IC50 (in general, the point on the concentration scale where inhibition reaches its midpoint) on MSP142 (IC50, displacement of analogue 258 from MSP1 by suramin, analogue 258 at 5 μM) came out at 8 µM; on MSP142 (IC50, displacement of analogue 264 from MSP1 by suramin, analogue 264 at 10 μM), 3 µM.
